Patent US20250163018A1, “KEY AMINO ACID BASED ON PROTEIN-DRUG INTERACTIONS INDUCED NEW CRYSTAL FORMS OF TRELAGLIPTIN AND PREPARATION METHODS THEREOF” (GUANGDONG UNIVERSITY OF TECHNOLOGY, priority 2024, published 2025)
In brackets after ≈: the same amount, converted by molar mass. Like-named read-outs stand apart in the source and are kept apart here.

Assay: Equilibrium solubility of crystal forms by UV-Vis spectrophotometry (279 nm)
Type: physicochemical
Excerpt: The specific operation was as follows: take samples of five new and original crystalline forms after reaching the dissolution equilibrium, filter them with 0.22 μm filter membrane, take appropriate amount of filtrate, according to the UV-Vis spectrophotometric method (Chinese Pharmacopoeia 2020 edition), determine the absorbance value at the wavelength of 279 nm, and substitute them into the standard curve to obtain the solubility of five new and original crystalline forms, as shown in Table 1.

[1] = pH = 7.0 aqueous solution (deionized water)

| SMILES | solubility (PBS, pH 6.8, aqueous buffer, thermodynamic from solid, pH = 6.8 PBS, read-out: solubility) | solubility (PBS, pH 7.4, aqueous buffer, thermodynamic from solid, pH = 7.4 PBS, read-out: solubility) | solubility (deionized water, pH 7, water, thermodynamic from solid, pH = 7.0 aqueous solution (deionized water), read-out: solubility) | solubility (hydrochloric acid solution, pH 1.2, simulated gastric fluid, thermodynamic from solid, pH = 1.2 hydrochloric acid, read-out: solubility) | solubility (pH = 1.2 hydrochloric acid) | solubility (pH = 6.8 PBS) | solubility [1] | solubility (pH = 7.4 PBS) |
| --- | --- | --- | --- | --- | --- | --- | --- | --- |
| Cn1c(=O)cc(N2CCC[C@@H](N)C2)n(Cc2cc(F)ccc2C#N)c1=O [TRE-I, 2-[[6-[(3R)-3-aminopiperidin-1-yl]-3-methyl-2,4-dioxopyrimidin-1-yl]methyl]-4-fluorobenzonitrile] | 34.2 mg/mL (≈ 95.8 mM) | 28.6 mg/mL (≈ 80 mM) | 13.2 mg/mL (≈ 36.9 mM) | 54 mg/mL (≈ 151 mM) | – | – | – | – |
| Cn1c(=O)cc(N2CCC[C@@H](N)C2)n(Cc2cc(F)ccc2C#N)c1=O [TRE-II, 2-[[6-[(3R)-3-aminopiperidin-1-yl]-3-methyl-2,4-dioxopyrimidin-1-yl]methyl]-4-fluorobenzonitrile] | – | – | – | – | 45.91 mg/mL (≈ 128 mM) | 40.01 mg/mL (≈ 112 mM) | 15.98 mg/mL (≈ 44.7 mM) | 37.32 mg/mL (≈ 104 mM) |
| Cn1c(=O)cc(N2CCC[C@@H](N)C2)n(Cc2cc(F)ccc2C#N)c1=O [TRE-III, 2-[[6-[(3R)-3-aminopiperidin-1-yl]-3-methyl-2,4-dioxopyrimidin-1-yl]methyl]-4-fluorobenzonitrile] | – | – | – | – | 39.76 mg/mL (≈ 111 mM) | 35.90 mg/mL (≈ 100 mM) | 14.93 mg/mL (≈ 41.8 mM) | 28.26 mg/mL (≈ 79.1 mM) |
| Cn1c(=O)cc(N2CCC[C@@H](N)C2)n(Cc2cc(F)ccc2C#N)c1=O [TRE-IV, 2-[[6-[(3R)-3-aminopiperidin-1-yl]-3-methyl-2,4-dioxopyrimidin-1-yl]methyl]-4-fluorobenzonitrile] | – | – | – | – | 73.49 mg/mL (≈ 206 mM) | 35.05 mg/mL (≈ 98.1 mM) | 19.56 mg/mL (≈ 54.7 mM) | 35.94 mg/mL (≈ 101 mM) |
| Cn1c(=O)cc(N2CCC[C@@H](N)C2)n(Cc2cc(F)ccc2C#N)c1=O [TRE-V, 2-[[6-[(3R)-3-aminopiperidin-1-yl]-3-methyl-2,4-dioxopyrimidin-1-yl]methyl]-4-fluorobenzonitrile] | – | – | – | – | 76.01 mg/mL (≈ 213 mM) | 36.12 mg/mL (≈ 101 mM) | 12.64 mg/mL (≈ 35.4 mM) | 37.51 mg/mL (≈ 105 mM) |
| Cn1c(=O)cc(N2CCC[C@@H](N)C2)n(Cc2cc(F)ccc2C#N)c1=O [original crystal form, 2-[[6-[(3R)-3-aminopiperidin-1-yl]-3-methyl-2,4-dioxopyrimidin-1-yl]methyl]-4-fluorobenzonitrile, reference compound] | – | – | – | – | – | 15.46 mg/mL (≈ 43.3 mM) | 3.40 mg/mL (≈ 9.51 mM) | 12.94 mg/mL (≈ 36.2 mM) |
